What was measured:
L1210 = test: Compound was evaluated against L1210 leukemia in mice expressed as increase of life span; Compound was active.; format: functional, Mus musculus
NIH3T3 = test: In vitro cytotoxicity was evaluated in mouse embryo BALB/c 3T3 cells; format: functional; details: read-out: LC50 (the source's name)

SMILES	ILS (L1210)	CC50 (NIH3T3)
CN1C(SCCS(=O)(=O)O)CCOP1(=O)N(CCCl)CCCl (stereo not drawn)	>29%	3.6 µM
O=P1(N(CCCl)CCCl)NCCCO1 (stereo not drawn) [CYCLOPHOSPHAMIDE ANHYDROUS]		37.6 µM
